Literature values in US9339460B2, “Self-emulsifiable liquid florfenicol composition intended to be incorporated into the drinking water of livestock” (VIRBAC SA, priority 2007, dated 2016).

Settings: in water

In the case of `CS(=O)(=O)c1ccc([C@@H](O)[C@@H](CF)NC(=O)C(Cl)Cl)cc1` [Florfenicol], the “"miscibility" of Florfenicol” value is listed as 12 g/L.
